Measurements from US9943525B2, “Composition for reducing cell senescence comprising Rho-kinase inhibitor and use thereof” (Samsung Electronics Co., Ltd., priority 2014, dated 2018).
Entries after “also recorded” stand apart in the source; their conditions may differ.

Key:
[1] = tested on: senescent progeric fibroblasts (cell passage 17); test: mitochondrial membrane potential (JC-1) by flow cytometry; format: cell-based, human; conditions: vs control, p<0.05, FIG. 20
Method: Progeric fibroblasts (Hutchinson-Gilford Progeria Syndrome Skin Fibroblasts, Coriell Cell Repositories, AG03198 B) were cultured in Dulbecco's Modified Eagle's Media (DMEM) supplemented with 10% fetal bovine serpm (FBS) and 100 unit/ml of penicillin, and 100 μg/ml of streptomycin (two antibiotics are purchased from Gibro-BRL and Grand Island, N.Y.) in a 5% CO2 incubator at 37° C. Subculturing was initiated when the cells were approximately 85% confluent in plates. Early subcultures were performed at a split ratio of 1:4, and later subcultures were performed at a split ratio of 1:2. When cell doubling time was 14 days, the cells were regarded as senescent progeric fibroblasts (cell passages 16 to 17).
The senescent progeric fibroblasts (cell passage 17) were seeded on each well of a 6-well plate in a concentration of 2,000 cells/well and cultured in the presence of 5 μM of Y-27632, 5 μM of FASUDIL, and 0.5 μM of SR3677 for 4 weeks in a 5% CO2 incubator at 37° C. The culture media were changed at every 4 days with new culture media supplemented with 5 μM of Y-27632, 5 μM of FASUDIL, and 0.5 μM of SR3677. A negative control group was prepared in the same manner, except that 0.05 (v/v) % of DMSO was used.
Mitochondrial membrane potentials were measured using a MitoProbe™ JC-1 Assay kit for Flow Cytometry (Life technologies, T3168) according to manufacturer's manuals. JC-1 is accumulated in mitochondria in a potential-dependent manner, and this accumulation is identified by fluorescence emission shift from green (about 529 nm) to red (about 590 nm). As a result, mitochondrial depolarization is identified by a decrease in a red/green fluorescence ratio. The mitochondrial membrane potentials were measured by excitation at 488 nm using a FACSCaliber (Beckton Dickinson) and using a flow cytometer by using 530/30 nm and 585/42 nm band pass filters. The results were analyzed using Cell Quest 3.2 software (Beckton Dickinson). FIG. 20 is a graph displaying action potentials of mitochondria. […] In FIG. 20, * indicates statistically significant (p<0.05). […]

[2] = tested on: senescent fibroblasts (after 37 cell passages); test: cell cycle analysis (Muse Cell Cycle Kit); format: cell-based, human; conditions: 5 μM; 4 weeks; vs DMSO control; FIG. 4
Method: The senescent fibroblasts (after 37 cell passages) were cultured in culture media respectively supplemented with 5 μM of Y-27632 (A), 5 μM of FASUDIL (B), and 0.5 μM of SR3677 (C) for 4 weeks in a 5% CO2 incubator at 37° C. The culture media were changed with new culture media respectively supplemented with 5 μM of Y-27632, 5 μM of FASUDIL, and 0.5 μM of SR3677 at every 4 days. Cell cycles were measured using a Muse™ Cell Cycle Kit (MERCK Millipore, MCH100106) in accordance with manufacturer's manuals. Light having a wavelength of 488 nm was irradiated to the cells using a Muse™ Cell Analyzer (MERCK Millipore) and light emission at 520 nm was measured. The results were analyzed using Cell Quest 3.2 software (Beckton Dickinson). The control group was prepared in the same manner, except that 0.05 (v/v) % of DMSO was added thereto.

[3] = tested on: senescent fibroblasts (after 37 cell passages); test: microscopic observation of cell number and shape; format: cell-based, human; conditions: 5 μM, 4 weeks, FIG. 3
Method: In addition, after senescent fibroblasts (after 37 cell passages) were cultured in the same culture media and same conditions as described above in the presence of 0.05 (v/v) % of DMSO and Y-27632 (5 μM), shapes of the cells were observed using a microscope. FIG. 3 is a microscopic image illustrating cell shapes of senescent fibroblasts (after 37 cell passages) cultured in the presence of Y-27632 for 4 weeks.

[4] = tested on: wound tissue of old (19 months old) male C57BL/6J mice; test: immunohistochemistry and Masson's trichrome staining of wound tissue sections; format: in vivo, mouse; conditions: 10 μM in 30% Pluronic gel topical daily
Method: To further test whether ROCK inhibitor can promote cutaneous wound healing in old (19 months old) male mice (C57BL/6J mice), four full-thickness punch-biopsy wounds (8 mm in diameter)(four wound sites/mouse, five mice/group) were created on the dorsal skin of mouse, 0.5 mL 10 μM Y-27632 in 30% Pluronic gel (Pluronic F-127 Sigma, P2443-1KG) was applied to wounds every day, and then covered the wounds with Telfa sponges (Kendall Health Care, Mansfield, Mass., USA). DMSO was used as a control. All animal studies were reviewed and approved by the […] Animal Care and Use Committee of SKKU School of Medicine (SUSM). SUSM is an Association for Assessment and Accreditation of Laboratory Animal Care international accredited facility and abides by the Institute for Laboratory Animal Research guide. Wounds were photographed for 10 days. Immunohistochemistry analyses were performed on 5 μm paraffin embedded sections as described previously (Lin et. al., 2004. Developmental Biology 270, 474-486). Primary antibodies used for immunohistochemistry were mouse anti-α-smooth muscle actin (Sigma, F3777-2ML, 1:500), and mouse anti-PCNA (Santa Cruz Biotechnology, SC-56, 1:500). Secondary antibodies used for immunohistochemistry were EnVisionTM Detection System (DAKO, […]). Masson's trichrome staining was performed according to the manufacturer's instructions (Polysciences Inc., Warrington Pa., USA). An immunohistochemical analysis was carried out to investigate the mechanism underlying the wound-healing process. […] FIG. 24 represents an immunohistochemical experimental result showing that Y-27632 treatment plays an important role in wound healing in old mouse (19 months old). Wound tissue sections were also subjected to Masson's trichrome staining to assess collagen deposition in the cross-sectional area of remodeled tissue.

## O=S(=O)(c1cccc2cnccc12)N1CCCNCC1 [FASUDIL, 5-(1,4-diazepane-1-sulfonyl)isoquinoline]
[1]; 5 μM
  action potentials of mitochondria (mitochondrial membrane potential): significantly increased
[2]
  number of cells in G0/G1 phases: less than that of cells in S and G2/M phases

## C[C@@H](N)[C@H]1CC[C@H](C(=O)Nc2ccncc2)CC1 [Y-27632, (1R,4R)-4-((R)-1-aminoethyl)-N-(pyridin-4-yl)cyclohexanecarboxamide]
[1]; 5 μM
  action potentials of mitochondria (mitochondrial membrane potential): significantly increased
[2]
  number of cells in G0/G1 phases: less than that of cells in S and G2/M phases
[3]
  cell shape: spindle shape generally found in young cells
[3]; vs DMSO
  numbers of cells: greater than that of the control group
[4]; DMSO: diffuse in granulation tissue, FIG. 24
  Masson's trichrome staining (collagen deposition): strong in the dermis area
[4]; DMSO: selective proliferation in granulation tissue, FIG. 24
  site of proliferation by PCNA immunolabeling: proliferation was observed in the supra basal area of epidermis
[4]; control: high in granulation tissue, FIG. 24
  α-SMA immunoreactivity in wound area: diffuse in the dermis and was correlated with the appearance of collagen fibers
[4]; relative to DMSO, P<0.01, FIG. 25
  collagen thickness: increased; also recorded: more dense and thicker collagen
[4]; vs control group, P<0.01, FIG. 26
  number of PCNA-positive cells in the epidermis: higher

## CN(C)CCOc1cc(-c2cn[nH]c2)ccc1NC(=O)C1COc2ccccc2O1 (stereo not drawn) [SR3677]
[1]; 0.5 μM
  action potentials of mitochondria (mitochondrial membrane potential): significantly increased
